According to patent publication US4499187A, “Method for evaluating mutagenicity” (Mobil Oil Corporation, priority 1984, dated 1985):

Key:
[1] = tested on: Salmonella typhimurium tester strain TA98; test: Modified Ames test with Aroclor 1254-induced rat liver S9 on DMSO extract (specific mutagenic activity, revertants); format: cell-based
Protocol: (§1) The hydrocarbon mixture to be assayed is extracted with an equal volume of DMSO five times, and the extracts are combined. The combined extract, which serves as surrogate for the hydrocarbon itself, is assayed using Salmonella typhimurium tester strain TA98 together with Aroclor 1254-induced rat liver S9. Prior to use, the rat liver S9 homogenate, obtained from Litton Bionetics, Kensington, Md., was stored at -80° C., and thawed on ice for 4 hours prior to use.
The assay is conducted by first introducing into a series of sterile capped culture tubes up to about eight different doses of the combined extract. The doses, usually in the range of 10 to 75 microliters, are selected to delimit the linear portion of the doseresponse curve. Duplicate or triplicate tubes are prepared for each dose level. […] Plates are incubated inverted at 37° C. in the dark and revertant colonies are counted 48 hours later.
Spontaneous reversion rates (47±8.5) and negative (solvent) control rates (47±8.5) were determined for all tests. […]
Specific mutagenic activity is assessed from the slope of the linear portion of the dose response curve that is obtained, and may be reported as revertants per μl of extract. […]

[2] = tested on: Salmonella typhimurium tester strain TA98; test: Modified Ames test with induced hamster liver S9 (TA98 revertants/plate); format: cell-based; details: 2 ug per plate
Protocol: as §1
The assay is conducted by first introducing into a series of sterile capped culture tubes up to about eight different doses of the combined extract. The doses, usually in the range of 10 to 75 microliters, are selected to delimit the linear portion of the doseresponse curve. Duplicate or triplicate tubes are prepared for each dose level. This is followed by 0.5 ml S9 mix containing 400 μl S9, 8 μM MgCl2, 33 μM KCl, 5 μM glucose-6-phosphate, 4 μM NADP and 100 μM sodium phosphate (pH 7.4), and 0.1 ml Salmonella typhimurium broth culture (1×10^9 cells/ml). The cultures are incubated at 37° C. with agitation for 20 minutes, following which top agar (0.6% agar, 0.5% NaCl, 0.5 mM histidine-biotin) is added. The tubes are vortexed to ensure adequate mixing and the contents overlaid on 30 ml Vogel-Bonner minimal media plates. Plates are incubated inverted at 37° C. in the dark and revertant colonies are counted 48 hours later. […]

SMILES: Nc1ccc2cc3ccccc3cc2c1 [2-aminoanthracene]
- TA98 Revertants/Plate, 400 ul Rat S9 ([1]; 2 ug per plate, 400 ul rat S9): 313 Revertants/Plate
- revertants (positive control) ([1]; 2 μg/plate, TA98, rat liver S9): 441±285 revertants
- TA98 Revertants/Plate, 400 ul Hamster S9 ([2]; 400 ul hamster S9): 639 Revertants/Plate
- TA98 Revertants/Plate, 400 ul Hamster S9 + 2xNADP ([2]; 400 ul hamster S9 + 2xNADP (8 mM)): 977 Revertants/Plate
